Data from patent US20250154134A1, “COMPOUND AS FAK INHIBITOR AND USE THEREOF” (WIGEN BIOMEDICINE TECHNOLOGY (SHANGHAI) CO., LTD., priority 2022, published 2025).

Tests used:
PC3 cells [1] = assay: PC3 cell proliferation, 3D activity assay (3D culture, 14 days); assay type: cell-based, human; conditions: read-out: 3D inhibitory activity against PC3 cells IC50
PC3 cells [2] = assay: Inhibition of PC3 cell low adsorption (adherent cell count, 4 h); assay type: cell-based; conditions: Homo sapiens, PC-3; 4 h treatment; read-out: IC50 against PC3 cell low adsorption
Method: PC3 cells were seeded at 8000 cells/well. 4 h after the cells were treated with a compound, the number of adherent cells was counted. The inhibition percentage and IC50 of the compound were calculated compared to the DMSO group.

FAK recombinant protein = FAK recombinant protein (Homo sapiens (Human), UniProt Q05397); assay: Inhibitory activity against FAK enzyme (HTRF, TK substrate); assay type: biochemical
Method: A compound serially diluted with DMSO was mixed with a FAK recombinant protein. After the mixture was left to stand at room temperature for 10 min, a biotin-labeled TK substrate (TK) and ATP were added. […] The inhibition percentage and IC50 of the compound were calculated compared to the DMSO control group.

PC3 cells [3] = assay: PC3 cell proliferation, 2D activity assay (Cell Titer-Lumi, 72 h); assay type: cell-based, human
[4] = Homo sapiens, PC-3, read-out: 2D inhibitory activity against PC3 cells IC50

FAK recombinant protein, sequence (Q05397 whole entry): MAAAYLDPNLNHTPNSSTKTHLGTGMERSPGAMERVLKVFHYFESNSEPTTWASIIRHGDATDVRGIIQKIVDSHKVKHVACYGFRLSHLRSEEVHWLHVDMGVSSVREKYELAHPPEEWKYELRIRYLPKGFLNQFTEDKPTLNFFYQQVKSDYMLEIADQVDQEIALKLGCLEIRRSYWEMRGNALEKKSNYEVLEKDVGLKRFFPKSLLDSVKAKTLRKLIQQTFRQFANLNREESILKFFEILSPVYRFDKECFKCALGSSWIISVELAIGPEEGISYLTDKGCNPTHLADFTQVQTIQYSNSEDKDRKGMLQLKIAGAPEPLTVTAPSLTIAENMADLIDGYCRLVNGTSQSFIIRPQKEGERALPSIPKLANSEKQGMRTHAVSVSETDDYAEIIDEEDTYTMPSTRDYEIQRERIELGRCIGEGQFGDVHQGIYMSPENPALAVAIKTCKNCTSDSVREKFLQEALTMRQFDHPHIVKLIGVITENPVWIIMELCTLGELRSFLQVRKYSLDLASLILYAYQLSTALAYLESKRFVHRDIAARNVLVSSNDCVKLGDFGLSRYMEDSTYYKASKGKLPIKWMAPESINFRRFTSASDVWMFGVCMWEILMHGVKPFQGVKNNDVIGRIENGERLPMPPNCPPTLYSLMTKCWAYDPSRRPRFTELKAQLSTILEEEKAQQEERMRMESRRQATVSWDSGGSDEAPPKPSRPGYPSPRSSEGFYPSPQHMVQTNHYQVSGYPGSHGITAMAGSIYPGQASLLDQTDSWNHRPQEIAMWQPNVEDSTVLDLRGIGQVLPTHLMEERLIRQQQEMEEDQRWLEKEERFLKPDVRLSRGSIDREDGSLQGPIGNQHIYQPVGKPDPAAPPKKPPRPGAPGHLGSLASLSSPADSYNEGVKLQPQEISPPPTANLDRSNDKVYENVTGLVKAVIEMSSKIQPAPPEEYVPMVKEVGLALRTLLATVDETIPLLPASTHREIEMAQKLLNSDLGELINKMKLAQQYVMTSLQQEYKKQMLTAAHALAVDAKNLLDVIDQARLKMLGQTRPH

| SMILES | IC50 (PC3 cells [1]; Homo sapiens, PC-3, 336 h) [nM] | IC50 (PC3 cells [2]) [nM] | IC50 (FAK recombinant protein) [nM] | IC50 (PC3 cells [3]; [4]) [nM] | IC50 (PC3 cells [1]) [nM] | IC50 (PC3 cells [3]; read-out: 2D inhibitory activity against PC3 cells IC50) [nM] |
| --- | --- | --- | --- | --- | --- | --- |
| CNC(=O)c1ccc(Nc2ncc(C(F)(F)F)c(Oc3cccc4c3C(=O)N(C)C43CC3)n2)cc1 [Compound 1, N-methyl-4-((4-((2′-methyl-3′-oxospiro[cyclopropane-1,1′-isoindolin]-4′-yl)oxy)-5-(trifluoromethyl)pyrimidin-2-yl)amino)benzamide] | 10.8 | 21.1 | < 20 | > 2000 | – | – |
| COc1cc(C(=O)NC2(C)CCN(C)CC2)ccc1Nc1ncc(C(F)(F)F)c(Oc2cccc3c2C(=O)N(C)C32CC2)n1 [Compound 6] | < 5 | 2.67 | < 20 | > 2000 | – | – |
| COc1cc(C(=O)NC2CC3(CCN(C)CC3)C2)c(F)cc1Nc1ncc(C(F)(F)F)c(Oc2cccc3c2C(=O)N(C)C32CC2)n1 [Compound 8, 2-fluoro-5-methoxy-4-((4-((2′-methyl-3′-oxospiro[cyclopropane-1,1′-isoindolin]-4′-yl)oxy)-5-(trifluoromethyl)pyrimidin-2-yl)amino)-N-(7-methyl-7-azaspiro[3.5]nonan-2-yl)benzamide] | 0.96 | 7.54 | < 20 | > 2000 | – | – |
| COc1cc(C(=O)NC2COC3(CCN(C)C3)C2)ccc1Nc1ncc(C(F)(F)F)c(Oc2cccc3c2C(=O)N(C)C32CC2)n1 (stereo not shown) [Compound 27] | < 5 | 11.7 | < 20 | > 2000 | – | – |
| CN1C(=O)c2c(Oc3nc(Nc4ccc5c(c4)CC(=O)N5)ncc3C(F)(F)F)cccc2C12CC2 [Compound 69] | 8.52 | 13.4 | < 20 | > 2000 | – | – |
| CN1C(=O)c2c(Oc3nc(Nc4ccc5c(c4)CCNC5=O)ncc3C(F)(F)F)cccc2C12CC2 [Compound 71] | 5.18 | 16.4 | < 20 | > 2000 | – | – |
| COc1cc(N2CCOCC2)ccc1Nc1ncc(C(F)(F)F)c(Oc2cccc3c2C(=O)N(C)C32CC2)n1 [Compound 77] | 4.88 | 27.2 | < 20 | > 10000 | – | – |
| COc1cc(CN2CCN(C)CC2)ccc1Nc1ncc(C(F)(F)F)c(Oc2cccc3c2C(=O)N(C)C32CC2)n1 [Compound 82] | 5 to 50 | 6.29 | < 20 | > 2000 | – | – |
| CN1Cc2cc(Nc3ncc(C(F)(F)F)c(Oc4cccc5c4C(=O)N(C)C54CC4)n3)cc3c2C(CCC3)C1 (stereo not shown) [Compound 88] | 1.78 | 42.4 | < 20 | > 10000 | – | – |
| CN1Cc2cc(Nc3ncc(C(F)(F)F)c(Oc4cccc5c4C(=O)N(C)C54CC4)n3)cc3c2C(CCO3)C1 (stereo not shown) [Compound 89] | 5 to 50 | 36.2 | < 20 | > 10000 | – | – |
| Cc1cc(Nc2ncc(C(F)(F)F)c(Oc3cccc4c3C(=O)N(C)C43CC3)n2)n(C(C)C)n1 [Compound 91] | 5 to 50 | 36.4 | < 20 | > 2000 | – | – |
| CN1C(=O)c2c(Oc3nc(Nc4cc5n(n4)CCC5)ncc3C(F)(F)F)cccc2C12CC2 [Compound 92, 4′-((2-((5,6-dihydro-4H-pyrrolo[1,2-b]pyrazol-2-yl)amino)-5-(trifluoromethyl)pyrimidin-4-yl)oxy)-2′-methylspiro[cyclopropane-1,1′-isoindolin]-3′-one] | 5 to 50 | 62 | < 20 | > 2000 | – | – |
| COc1cc(N2CCC(N3CCN(C)CC3)CC2)c(F)cc1Nc1ncc(C(F)(F)F)c(Oc2cccc3c2C(=O)N(C)C32CC2)n1 [Compound 121, 4′-((2-((5-fluoro-2-methoxy-4-(4-(4-methylpiperazin-1-yl)piperidin-1-yl)phenyl)amino)-5-(trifluoromethyl)pyrimidin-4-yl)oxy)-2′-methylspiro[cyclopropane-1,1′-isoindolin]-3′-one] | < 5 | 7.2 | < 20 | > 2000 | – | – |
| COc1cc(N2CCN(C)CC2)ccc1Nc1ncc(Cl)c(Oc2cccc3c2C(=O)N(C)C32CC2)n1 [Compound 141] | 5 to 50 | 13.9 | < 20 | > 2000 | – | – |
| COc1cc(CN(C)C2CCN(C)CC2)ccc1Nc1ncc(Cl)c(Oc2cccc3c2C(=O)N(C)C32CC2)n1 [Compound 154] | 5 to 50 | 6.9 | < 20 | > 2000 | – | – |
| COc1cc(C(=O)NC2CC3(CCN(C)CC3)C2)c(F)cc1Nc1ncc(C#N)c(Oc2cccc3c2C(=O)N(C)C32CC2)n1 [Compound 194] | < 5 | – | < 20 | > 2000 | – | – |
| COc1cc(C(=O)NC2CC3(CCN(C)CC3)C2)ccc1Nc1ncc(C#N)c(Oc2cccc3c2C(=O)N(C)C32CC2)n1 [Compound 195] | < 5 | – | < 20 | > 2000 | – | – |
| COc1cc(N2CC3(CCN(C)CC3)C2)c(F)cc1Nc1ncc(C#N)c(Oc2cccc3c2C(=O)N(C)C32CC2)n1 [Compound 197] | 2.42 | 1.67 | < 20 | > 2000 | – | – |
| COc1cc(C2CCN(C)CC2)ccc1Nc1ncc(C#N)c(Oc2cccc3c2C(=O)N(C)C32CC2)n1 [Compound 198] | 5 to 50 | – | < 20 | > 2000 | – | – |

| SMILES | IC50 (PC3 cells [1]; Homo sapiens, PC-3, 336 h) [nM] | IC50 (PC3 cells [2]) [nM] | IC50 (FAK recombinant protein) [nM] | IC50 (PC3 cells [3]; [4]) [nM] | IC50 (PC3 cells [1]) [nM] | IC50 (PC3 cells [3]; read-out: 2D inhibitory activity against PC3 cells IC50) [nM] |
| --- | --- | --- | --- | --- | --- | --- |
| COc1cc(C2CCN(C)CC2)c(F)cc1Nc1ncc(C#N)c(Oc2cccc3c2C(=O)N(C)C32CC2)n1 [Compound 199] | 5 to 50 | – | < 20 | > 2000 | – | – |
| COc1cc(N2CCC(N3CCN(C)CC3)CC2)ccc1Nc1ncc(C#N)c(Oc2cccc3c2C(=O)N(C)C32CC2)n1 [Compound 200] | < 5 | – | < 20 | > 2000 | – | – |
| COc1cc(N2CCN(C)CC2)c(F)cc1Nc1ncc(C#N)c(Oc2cccc3c2C(=O)N(C)C32CC2)n1 [Compound 201] | < 5 | – | < 20 | > 2000 | – | – |
| COc1cc(N2CCC3(CC2)CN(C)C3)ccc1Nc1ncc(C#N)c(Oc2cccc3c2C(=O)N(C)C32CC2)n1 [Compound 202] | < 5 | – | < 20 | > 2000 | – | – |
| COc1cc(N2CC3(CCN(C)CC3)C2)ccc1Nc1ncc(Cl)c(Oc2cccc3c2C(=O)N(C)C32CCC2)n1 [Compound 203, 94′-((5-chloro-2-((2-methoxy-4-(7-methyl-2,7-diazaspiro[3.5]nonan-2-yl)phenyl)amino)pyrimidin-4-yl)oxy)-2′-methylspiro[cyclobutane-1,1′-isoindolin]-3′-one] | – | – | < 20 | – | < 5 | > 2000 |
| COc1cc(C(=O)NC2CC3(CCN(C)CC3)C2)c(F)cc1Nc1ncc(Cl)c(Oc2cccc3c2C(=O)N(C)C32CCC2)n1 [Compound 204] | < 5 | – | < 20 | > 2000 | – | – |
| COc1cc(C(=O)NC2CCN(C)CC2)c(F)cc1Nc1ncc(Cl)c(Oc2cccc3c2C(=O)N(C)C32CCC2)n1 [Compound 205] | < 5 | – | < 20 | > 2000 | – | – |
| COc1cc(N2CC3(CCN(C)CC3)C2)c(F)cc1Nc1ncc(Cl)c(Oc2cccc3c2C(=O)N(C)C32CCC2)n1 [Compound 206] | < 5 | – | < 20 | > 2000 | – | – |
| COc1cc(N2CC3(CCN(C)CC3)C2)ccc1Nc1ncc(Cl)c(Oc2cccc3c2C(=O)N(C)C32CCCC2)n1 [Compound 207] | 5 to 50 | – | < 20 | > 2000 | – | – |
| COc1cc(C(=O)NC2CC3(CCN(C)CC3)C2)c(F)cc1Nc1ncc(Cl)c(Oc2cccc3c2C(=O)N(C)C32CCCC2)n1 [Compound 208] | > 50 | – | < 20 | > 2000 | – | – |
| COc1cc(N2CC3(CCN(C)CC3)C2)ccc1Nc1ncc(Cl)c(Oc2cccc3c2C(=O)N(C)C32CCCCC2)n1 [Compound 210] | > 50 | – | < 20 | > 2000 | – | – |
| COc1cc(N2CC3(CCN(C)CC3)C2)c(F)cc1Nc1ncc(Cl)c(Oc2cccc3c2C(=O)N(C)C32CCCCC2)n1 [Compound 211] | > 50 | – | < 20 | > 2000 | – | – |
| COc1cc(C(=O)NC2CCN(C)CC2)c(F)cc1Nc1ncc(Cl)c(Oc2cccc3c2C(=O)N(C)C32CCCCC2)n1 [Compound 212] | > 50 | – | < 20 | > 2000 | – | – |
| COc1cc(N2CC3(CCN(C)CC3)C2)ccc1Nc1ncc(Cl)c(Oc2cccc3c2C(=O)N(C)C32CCOCC2)n1 [Compound 213] | > 50 | – | < 20 | > 2000 | – | – |
| COc1cc(N2CC3(CCN(C)CC3)C2)c(F)cc1Nc1ncc(Cl)c(Oc2cccc3c2C(=O)N(C)C32CCOCC2)n1 [Compound 214] | > 50 | – | < 20 | > 2000 | – | – |
| COc1cc(C(=O)NC2CCN(C)CC2)c(F)cc1Nc1ncc(Cl)c(Oc2cccc3c2C(=O)N(C)C32CCOCC2)n1 [Compound 215] | > 50 | – | < 20 | > 2000 | – | – |
| COc1cc(N2CC3(CCN(C)CC3)C2)ccc1Nc1ncc(Cl)c(Oc2cccc3c2C(=O)N(C)C32COC2)n1 [Compound 216] | 5 to 50 | – | < 20 | > 2000 | – | – |
| COc1cc(N2CC3(CCN(C)CC3)C2)c(F)cc1Nc1ncc(Cl)c(Oc2cccc3c2C(=O)N(C)C32COC2)n1 [Compound 217] | 5 to 50 | – | < 20 | > 2000 | – | – |
| COc1cc(C(=O)NC2CCN(C)CC2)c(F)cc1Nc1ncc(Cl)c(Oc2cccc3c2C(=O)N(C)C32COC2)n1 [Compound 218] | > 50 | – | < 20 | > 2000 | – | – |
